According to KR20210106935A, “암의 예방 또는 치료용 조성물” (연세대학교 산학협력단, priority 2019, dated 2021):

How the values were obtained:
[1] = tested on: GSPY2 cells (Thyroid cancer; Papillary); assay: Cell proliferation IC50 (MTT), patient-derived papillary thyroid cancer cells GSPY2; format: cell-based; conditions: Homo sapiens, PTC stage IV, mean ± SEM, read-out: cell proliferation IC50 - half maximal inhibitory concentration
[2] = tested on: EMT protein (e.g. Snail, Zeb1) (EMT 단백질); assay: EMT protein expression in young-patient-derived cancer cells; format: cell-based, human; conditions: young-patient-derived cancer cell lines
[3] = tested on: GSPO1 cells (Thyroid cancer; Papillary); assay: Cell proliferation IC50 (MTT), patient-derived papillary thyroid cancer cells GSPO1 (second line of the same label); format: cell-based; conditions: Homo sapiens, adult patient, by order of Table 3, PTC stage IV, mean ± SEM, read-out: cell proliferation IC50 - half maximal inhibitory concentration
[4] = tested on: FGFR signaling (e.g. PKC, MEK, p-ERK) (FGFR 시그널링); assay: FGFR signaling in young-patient-derived cancer cells; format: cell-based, human; conditions: young-patient-derived cancer cell lines
[5] = tested on: cancer cells from young patients (어린 환자의 암 세포); assay: Cell count over 7 days after drug treatment, young-patient papillary thyroid cancer cells; format: cell-based, human; conditions: unlike sorafenib, Figs. 4 to 7
[6] = tested on: GSPY1 cells (Thyroid cancer; Papillary); assay: Cell proliferation IC50 (MTT), patient-derived papillary thyroid cancer cells GSPY1; format: cell-based; conditions: Homo sapiens, PTC stage IV, mean ± SEM, read-out: cell proliferation IC50 - half maximal inhibitory concentration
[7] = tested on: GSPO1 cells (Thyroid cancer; Papillary); assay: Cell proliferation IC50 (MTT), patient-derived papillary thyroid cancer cells GSPO1 (first line); format: cell-based; conditions: Homo sapiens, adult patient, by order of Table 3, PTC stage IV, mean ± SEM, read-out: cell proliferation IC50 - half maximal inhibitory concentration

SMILES	IC50 [1] [µM]	effect on EMT protein expression [2]	IC50 [3] [µM]	inhibition of FGFR signaling [4]	inhibition of cancer proliferation (cell number) [5]	IC50 [6] [µM]	IC50 [7] [µM]
CCN(CC)C(=S)SSC(=S)N(CC)CC [Disulfiram, 디에틸카르바모티올설파닐 N,N-디에틸카르바모디티오에이트]	0.304	EMT 단백질의 발현(예를 들면, Snail, Zeb1 등)을 억제(down-regulated)	0.21	FGFR 시그널링(예를 들면, PKC, MEK, p-ERK 등)을 억제	어린 환자에게서 더 효과적으로 암의 증식을 억제하는 것을 확인할 수 있었다	0.305	0.22
CNC(=O)c1cc(Oc2ccc(NC(=O)Nc3ccc(Cl)c(C(F)(F)F)c3)cc2)ccn1 [Sorafenib, 4-[4-[[[[4-클로로-3-(트리플루오르메틸)페닐]아미노]카르복실]아미노]페녹시]-N-메틸-2-피리딘카르복사미드]	20.2	FGFR을 기반으로 하는 EMT 단백질 발현에 영향을 주지 않는	10.1	–	–	17.2	9.84
